Data published in US12097241B2, “Methods of treating kidney failure, and/or improving or stablizing renal function using modified relaxin polypeptides” (BRISTOL-MYERS SQUIBB COMPANY, priority 2017, dated 2024).
Where two headings read alike, the source gives them in different places.

Biological target: T1, human RXFP1 receptor (Homo sapiens, UniProt Q9HBX9)
T1 construct: expressed in transfected cells
T1 sequence (Q9HBX9 1-757): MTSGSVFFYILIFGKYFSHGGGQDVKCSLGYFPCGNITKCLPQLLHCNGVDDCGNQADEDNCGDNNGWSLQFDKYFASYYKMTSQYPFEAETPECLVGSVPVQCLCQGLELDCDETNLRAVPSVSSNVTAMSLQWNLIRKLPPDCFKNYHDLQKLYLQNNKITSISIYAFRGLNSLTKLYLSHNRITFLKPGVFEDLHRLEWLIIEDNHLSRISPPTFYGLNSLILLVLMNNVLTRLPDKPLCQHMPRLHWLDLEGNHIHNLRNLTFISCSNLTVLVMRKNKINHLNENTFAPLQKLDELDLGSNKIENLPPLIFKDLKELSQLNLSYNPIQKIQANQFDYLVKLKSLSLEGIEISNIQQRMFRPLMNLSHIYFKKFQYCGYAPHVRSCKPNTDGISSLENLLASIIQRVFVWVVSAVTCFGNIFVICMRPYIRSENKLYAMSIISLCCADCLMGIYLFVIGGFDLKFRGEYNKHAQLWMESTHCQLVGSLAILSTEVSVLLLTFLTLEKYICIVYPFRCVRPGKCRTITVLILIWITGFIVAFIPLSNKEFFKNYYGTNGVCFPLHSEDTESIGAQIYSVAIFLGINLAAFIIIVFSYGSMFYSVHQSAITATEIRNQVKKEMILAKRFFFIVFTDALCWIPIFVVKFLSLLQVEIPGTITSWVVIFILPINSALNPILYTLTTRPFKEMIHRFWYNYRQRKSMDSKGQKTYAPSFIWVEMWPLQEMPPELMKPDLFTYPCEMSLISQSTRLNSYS
Test: Intracellular cAMP accumulation assay
Type: cell-based

Row | EC50 (CHO-K1 cells stably expressing human RXFP1, 10 min at 37° C., HTRF cAMP, average, read-out: hRXFP1/CHO-K1 cAMP EC50 (nM, avg)) | SMILES | EC50
1 | – | CC[C@H](C)[C@@H]1NC(=O)[C@H](C)NC(=O)[C@H]([C@@H](C)CC)NC(=O)[C@H](CCC(N)=O)NC(=O)[C@H](C)NC(=O)[C@H](CCCNC(=N)N)NC(=O)[C@H](C(C)C)NC(=O)[C@H](CC(C)C)NC(=O)[C@H](CCC(=O)O)NC(=O)[C@H](CCCNC(=N)N)NC(=O)CNC(=O)[C@@H](NC(=O)[C@H](CC(C)C)NC(=O)[C@H](CCCCN)NC(=O)[C@@H](NC(=O)[C@@H](NC(=O)[C@H](CCC(=O)O)NC(=O)[C@H](CCC(=O)O)NC(=O)[C@H](CCSC)NC(=O)[C@H](Cc2c[nH]c3ccccc23)NC(=O)[C@H](CO)NC(=O)[C@H](C)N)C(C)C)[C@@H](C)CC)CSSC[C@@H]2NC(=O)[C@@H](NC(=O)[C@H](CCCCN)NC(=O)[C@H](CC(N)=O)NC(=O)[C@H](C)NC(=O)[C@H](CC(C)C)NC(=O)[C@H](C)NC(=O)[C@H](CO)NC(=O)[C@H](Cc3ccc(O)cc3)NC(=O)[C@H](CC(C)C)NC(=O)[C@@H](N)Cc3ccc(C(C)=NOCCNC(=O)[C@H](CCCCN)NC(=O)[C@H](CCCCN)NC(=O)[C@H](CO)NC(=O)CNC(=O)CNC(=O)[C@H](CO)NC(=O)CNC(=O)CNC(=O)[C@H](CCC(=O)O)NC(=O)CCCCCCCCCCCCC(=O)O)cc3)CSSC[C@H](NC(=O)CNC(=O)[C@H](C(C)C)NC(=O)[C@H](Cc3c[nH]cn3)NC2=O)C(=O)N[C@@H]([C@@H](C)O)C(=O)N[C@@H](CCCCN)C(=O)N[C@@H](CCCNC(=N)N)C(=O)N[C@@H](CO)C(=O)N[C@@H](CC(C)C)C(=O)N[C@@H](C)C(=O)N[C@@H](CCCNC(=N)N)C(=O)N[C@@H](Cc2ccccc2)C(=O)N[C@H](C(=O)O)CSSC[C@@H](C(=O)NCC(=O)N[C@@H](CCSC)C(=O)N[C@@H](CO)C(=O)N[C@H](C(=O)N[C@@H](Cc2c[nH]c3ccccc23)C(=O)N[C@@H](CO)C(=O)O)[C@@H](C)O)NC1=O [AQ1-KKSGGSGG-Glu^α-C13-COOH] | 0.27 nM
2 | – | CCCCCCCCCCCCCCC(=O)NCC(=O)NCC(=O)NCC(=O)N[C@@H](CCC(=O)O)C(=O)N[C@@H](CCC(=O)O)C(=O)N1CCC[C@H]1C(=O)N[C@@H](CCC(=O)O)C(=O)N[C@@H](CCC(=O)O)C(=O)N[C@@H](CCC(=O)O)C(=O)N[C@@H](CCC(=O)O)C(=O)N1CCC[C@H]1C(=O)N[C@@H](CCC(=O)O)C(=O)N[C@@H](CCC(=O)O)C(=O)N[C@@H](CCC(=O)O)C(=O)N[C@@H](CCC(=O)O)C(=O)N1CCC[C@H]1C(=O)N[C@@H](CCC(=O)O)C(=O)N[C@@H](CCC(=O)O)C(=O)N[C@@H](CCC(=O)O)C(=O)N[C@@H](CCC(=O)O)C(=O)NCCON=C(C)c1ccc(C[C@H](N)C(=O)N[C@@H](CC(C)C)C(=O)N[C@@H](Cc2ccc(O)cc2)C(=O)N[C@@H](CO)C(=O)N[C@@H](C)C(=O)N[C@@H](CC(C)C)C(=O)N[C@@H](C)C(=O)N[C@@H](CC(N)=O)C(=O)N[C@@H](CCCCN)C(=O)N[C@H]2CSSC[C@@H]3NC(=O)CNC(=O)[C@H](C(C)C)NC(=O)[C@H](Cc4c[nH]cn4)NC(=O)[C@H](CSSC[C@H](NC(=O)[C@H](CC(C)C)NC(=O)[C@H](CCCCN)NC(=O)[C@@H](NC(=O)[C@@H](NC(=O)[C@H](CCC(=O)O)NC(=O)[C@H](CCC(=O)O)NC(=O)[C@H](CCSC)NC(=O)[C@H](Cc4c[nH]c5ccccc45)NC(=O)[C@H](CO)NC(=O)[C@H](C)N)C(C)C)[C@@H](C)CC)C(=O)NCC(=O)N[C@@H](CCCNC(=N)N)C(=O)N[C@@H](CCC(=O)O)C(=O)N[C@@H](CC(C)C)C(=O)N[C@@H](C(C)C)C(=O)N[C@@H](CCCNC(=N)N)C(=O)N[C@@H](C)C(=O)N[C@@H](CCC(N)=O)C(=O)N[C@@H]([C@@H](C)CC)C(=O)N[C@@H](C)C(=O)N[C@@H]([C@@H](C)CC)C(=O)N[C@H](C(=O)NCC(=O)N[C@@H](CCSC)C(=O)N[C@@H](CO)C(=O)N[C@H](C(=O)N[C@@H](Cc4c[nH]c5ccccc45)C(=O)N[C@@H](CO)C(=O)O)[C@@H](C)O)CSSC[C@@H](C(=O)O)NC(=O)[C@H](Cc4ccccc4)NC(=O)[C@H](CCCNC(=N)N)NC(=O)[C@H](C)NC(=O)[C@H](CC(C)C)NC(=O)[C@H](CO)NC(=O)[C@H](CCCNC(=N)N)NC(=O)[C@H](CCCCN)NC(=O)[C@H]([C@@H](C)O)NC3=O)NC2=O)cc1 | 0.16 nM
3 | – | CCCCCCCCCCCCCCC(=O)N[C@@H](CCC(=O)N[C@@H](CCC(=O)O)C(=O)N[C@@H](CCC(=O)O)C(=O)N[C@@H](CCC(=O)O)C(=O)N[C@@H](CCC(=O)O)C(=O)N[C@@H](CCC(=O)O)C(=O)N[C@@H](CCC(=O)O)C(=O)NCCON=C(C)c1ccc(C[C@H](N)C(=O)N[C@@H](CC(C)C)C(=O)N[C@@H](Cc2ccc(O)cc2)C(=O)N[C@@H](CO)C(=O)N[C@@H](C)C(=O)N[C@@H](CC(C)C)C(=O)N[C@@H](C)C(=O)N[C@@H](CC(N)=O)C(=O)N[C@@H](CCCCN)C(=O)N[C@H]2CSSC[C@@H]3NC(=O)CNC(=O)[C@H](C(C)C)NC(=O)[C@H](Cc4c[nH]cn4)NC(=O)[C@H](CSSC[C@H](NC(=O)[C@H](CC(C)C)NC(=O)[C@H](CCCCN)NC(=O)[C@@H](NC(=O)[C@@H](NC(=O)[C@H](CCC(=O)O)NC(=O)[C@H](CCC(=O)O)NC(=O)[C@H](CCSC)NC(=O)[C@H](Cc4c[nH]c5ccccc45)NC(=O)[C@H](CO)NC(=O)[C@H](C)N)C(C)C)[C@@H](C)CC)C(=O)NCC(=O)N[C@@H](CCCNC(=N)N)C(=O)N[C@@H](CCC(=O)O)C(=O)N[C@@H](CC(C)C)C(=O)N[C@@H](C(C)C)C(=O)N[C@@H](CCCNC(=N)N)C(=O)N[C@@H](C)C(=O)N[C@@H](CCC(N)=O)C(=O)N[C@@H]([C@@H](C)CC)C(=O)N[C@@H](C)C(=O)N[C@@H]([C@@H](C)CC)C(=O)N[C@H](C(=O)NCC(=O)N[C@@H](CCSC)C(=O)N[C@@H](CO)C(=O)N[C@H](C(=O)N[C@@H](Cc4c[nH]c5ccccc45)C(=O)N[C@@H](CO)C(=O)O)[C@@H](C)O)CSSC[C@@H](C(=O)O)NC(=O)[C@H](Cc4ccccc4)NC(=O)[C@H](CCCNC(=N)N)NC(=O)[C@H](C)NC(=O)[C@H](CC(C)C)NC(=O)[C@H](CO)NC(=O)[C@H](CCCNC(=N)N)NC(=O)[C@H](CCCCN)NC(=O)[C@H]([C@@H](C)O)NC3=O)NC2=O)cc1)C(=O)O [AQ1-EEEEEE-Glu^γ-C14-CH3] | 0.38 nM
4 | 0.32 nM | CC[C@H](C)[C@@H]1NC(=O)[C@H](C)NC(=O)[C@H]([C@@H](C)CC)NC(=O)[C@H](CCC(N)=O)NC(=O)[C@H](C)NC(=O)[C@H](CCCNC(=N)N)NC(=O)[C@H](C(C)C)NC(=O)[C@H](CC(C)C)NC(=O)[C@H](CCC(=O)O)NC(=O)[C@H](CCCNC(=N)N)NC(=O)CNC(=O)[C@@H](NC(=O)[C@H](CC(C)C)NC(=O)[C@H](CCCCN)NC(=O)[C@@H](NC(=O)[C@@H](NC(=O)[C@H](CCC(=O)O)NC(=O)[C@H](CCC(=O)O)NC(=O)[C@H](CCSC)NC(=O)[C@H](Cc2c[nH]c3ccccc23)NC(=O)[C@H](CO)NC(=O)[C@H](C)N)C(C)C)[C@@H](C)CC)CSSC[C@@H]2NC(=O)[C@@H](NC(=O)[C@H](CCCCN)NC(=O)[C@H](CC(N)=O)NC(=O)[C@H](C)NC(=O)[C@H](CC(C)C)NC(=O)[C@H](C)NC(=O)[C@H](CO)NC(=O)[C@H](Cc3ccc(O)cc3)NC(=O)[C@H](CC(C)C)NC(=O)[C@@H](N)Cc3ccc(/C(C)=N/OCCNC(=O)CN(C)C(=O)CN(C)C(=O)CN(C)C(=O)CN(C)C(=O)[C@H](CO)NC(=O)CC[C@H](NC(=O)CCCCCCCCCCCCC(=O)O)C(=O)O)cc3)CSSC[C@H](NC(=O)CNC(=O)[C@H](C(C)C)NC(=O)[C@H](Cc3c[nH]cn3)NC2=O)C(=O)N[C@@H]([C@@H](C)O)C(=O)N[C@@H](CCCCN)C(=O)N[C@@H](CCCNC(=N)N)C(=O)N[C@@H](CO)C(=O)N[C@@H](CC(C)C)C(=O)N[C@@H](C)C(=O)N[C@@H](CCCNC(=N)N)C(=O)N[C@@H](Cc2ccccc2)C(=O)N[C@H](C(=O)O)CSSC[C@@H](C(=O)NCC(=O)N[C@@H](CCSC)C(=O)N[C@@H](CO)C(=O)N[C@H](C(=O)N[C@@H](Cc2c[nH]c3ccccc23)C(=O)N[C@@H](CO)C(=O)O)[C@@H](C)O)NC1=O [AQ1-Sar-Sar-Sar-Sar-Ser-Glu^γ-C13-COOH] | –
